Data published in patent publication US20020061836A1, “Methods for altering SXR activation using peptide mimetic HIV protease inhibitor SXR ligands” (priority 2000, published 2002).
Like-named read-outs stand apart in the source and are kept apart here. Each block holds one molecule with its values, some of them ahead of it.

How the values were obtained:
[1] = target: T1, mouse CARβ (Mus musculus, UniProt O35627); experiment: Nuclear receptor specificity transfection assay / LXRE×3-TK-luc reporter with CARβ in CV-1 cells; type: cell-based; conditions: LXRE×3-TK-luc reporter; 5 μM androstanol or 50 nM ET-743
T1 sequence (O35627 1-358): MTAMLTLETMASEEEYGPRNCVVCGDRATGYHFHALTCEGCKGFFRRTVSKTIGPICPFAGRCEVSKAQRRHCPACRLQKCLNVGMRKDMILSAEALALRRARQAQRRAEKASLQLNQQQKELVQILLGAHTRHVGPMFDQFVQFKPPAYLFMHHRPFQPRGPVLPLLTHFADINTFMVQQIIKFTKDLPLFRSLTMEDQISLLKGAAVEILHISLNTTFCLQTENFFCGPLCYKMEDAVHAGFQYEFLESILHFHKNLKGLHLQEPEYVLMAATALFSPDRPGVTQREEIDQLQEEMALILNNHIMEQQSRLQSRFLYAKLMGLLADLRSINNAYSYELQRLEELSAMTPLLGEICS

[2] = test system: CV-1 cells
[3] = test system: cancer cell-lines and human xenografts; conditions: variety of cancer cell-lines and human xenografts; read-out: IC50s for inhibition of proliferation; cited from earlier work
[4] = target: T2, human SXR ligand binding domain (Homo sapiens, UniProt O75469); experiment: Gal-L-SXR (Gal-SXR) Gal4 reporter transient transfection assay in CV-1 cells
T2 sequence (O75469 107-434 limits assumed): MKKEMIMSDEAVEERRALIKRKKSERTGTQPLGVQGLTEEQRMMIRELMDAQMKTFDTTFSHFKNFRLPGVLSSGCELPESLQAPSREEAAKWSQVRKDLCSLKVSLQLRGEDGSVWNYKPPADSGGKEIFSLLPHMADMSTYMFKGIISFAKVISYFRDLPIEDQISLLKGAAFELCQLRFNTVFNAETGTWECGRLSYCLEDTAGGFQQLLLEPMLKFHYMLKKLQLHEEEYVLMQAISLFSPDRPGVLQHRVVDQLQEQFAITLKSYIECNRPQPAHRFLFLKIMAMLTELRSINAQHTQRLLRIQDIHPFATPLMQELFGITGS
Description: Use of a standard model heterologous cell system to reconstitute SXR agonist and antagonist responsiveness allows SXR activity to be monitored in the absence of the metabolic events which may obscure the process being tested. Any suitable heterologous cell system may be used to test the activation of potential or known SXR nuclear receptor ligands, as long as the cells are capable of being transiently transfected with the appropriate DNA which expresses receptors, reporter genes, response elements, and the like. Cells which constitutively express one or more of the necessary genes may be used as well. Cell systems that are suitable for the transient expression of mammalian genes and which are amenable to maintenance in culture are well known to those skilled in the art. […] Suitable reporter gene constructs are well known to skilled workers in the fields of biochemistry and molecular biology. Activity of the reporter gene can be conveniently normalized to the internal control and the data plotted as fold activation relative to untreated cells.
The Gal4 reporter activity was normalized to the internal β-galactosidase control and the data plotted as fold activation relative to untreated cells. All transfections contained the Gal4 reporter and a β-galactosidase expression vector as an internal control.
(§1) Izbicka et al., Ann. Oncol.
Gal-PXR containing the ligand binding domain of mouse PXR (#AF031814) was obtained from Bruce Blumberg.
Transient Transffection Assays—CV-1 cells were grown and transfected as described.

[5] = test system: CYP2C8 mRNA; conditions: primary human hepatocytes; 10 μM (LG268 100 nM); 48 hours
Method: Northern analysis was performed as follows. Primary human hepatocytes were obtained from Clonetics (Walkersville, Md.) and maintained in Hepatocyte Maintenance Medium supplemented with dexamethasone and insulin according to the vendors instructions. Cells were treated with the indicated SXR agonists for 48 hours and total RNA was isolated using the Trizol reagent.
(§2) Northern Blot Analysis—Primary human hepatocytes were obtained from Clonetics (Walkersville, Md.) and cultured according to the vendors instructions. Cells were treated with the indicated compounds for 24 hours and total RNA was isolated using the Trizol reagent.
(§3) After 24 hour exposure to the compounds, total RNA was prepared and analyzed by northern analysis using probes for MDR1 and the GAPDH control.

[6] = test system: MRP2 mRNA; experiment: Northern analysis of MRP2 expression in primary human hepatocytes; type: cell-based; conditions: primary human hepatocytes; 2.5 μM hyperforin, 10 μM rifampicin, 10 μM SR12813; 24 hour
Method: as §2
After 24 hour exposure to the compounds, total RNA was prepared and analyzed by northern analysis using probes for MRP2 and the GAPDH control. […] CV-1 cells were transiently transfected with a Gal4 reporter and a vector expressing Gal4-fused to the ligand binding domain of human SXR (Gal-SXR).
as §3

[7] = target: SXR interaction with nuclear corepressor SMRT (Homo sapiens, UniProt O75469); experiment: Mammalian two-hybrid SXR-corepressor interaction assay; type: cell-based; conditions: CV-1 cells; 10 μM
[8] = test system: MDR1 mRNA; experiment: Northern analysis of MDR1 expression in human LS180 cells; type: cell-based; conditions: 10 μM, 24 hours
Method: as §1, §2, §3

[9] = target: SXR coactivator interaction (SRC1, ACTR, GRIP, PBP) (Homo sapiens, UniProt O75469); conditions: CV-1 cells; 10 μM docetaxel
[10] = test system: CV-1 cells; experiment: Potential cytotoxic effects at the concentrations and treatment times used; conditions: at the indicated concentrations and treatment times
[11] = test system: LS180 human colon cancer cells; experiment: [14C]-paclitaxel efflux from pretreated LS180 cells; type: cell-based; conditions: LS180 cells induced 48 hours with 10 μM paclitaxel, 10 μM docetaxel or 100 nM LG268
Method: Taxane-induced drug efflux was measured using pretreated LS180 human colon cancer cells. The rate of drug efflux was measured. […] Individual data points are the means of triplicate determinations, error bars represent standard deviation and the lines are lines of regression. The slope of each line (rate of efflux) was compared to the slope obtained in the control (untreated) cells using an analysis of covariance. […] The entire experiment was performed three times with similar results. […] The cells were then incubated in media supplemented with 10 μM [^14C]-paclitaxel (4.9 μCi/umol, Moravek Biochemicals, Brea, Calif.) for 15 minutes. The uptake of ^14C-paclitaxel reached maximum levels at 10-12 minutes (data not shown). After 15 minutes, the cells were then rapidly centrifuged through silicone oil to remove all traces of extracellular radioactivity, resuspended in fresh media, and cell counts determined. At multiple time points over the next 10 minutes, triplicate aliquots of the cell suspension (approx. 1×10^5 cells/aliquot) were again centrifuged through silicon oil and the radioactivity in the cell pellet measured by quench-corrected liquid scintillation counting. The rate of [^14C]-paclitaxel efflux was determined as the slope of the [^14C]-paclitaxel versus time plots using all data. The slope for each inducer was compared to the slope obtained in the control (untreated) cells using an analysis of covariance.

SMILES: COc1cc2c(cc1O)CCN[C@]21CS[C@@H]2c3c(OC(C)=O)c(C)c4c(c3[C@H](COC1=O)N1[C@@H]2[C@H]2c3c(cc(C)c(OC)c3O)C[C@@H]([C@@H]1O)N2C)OCO4 [ET-743, ecteinascidin-743]
effect on transcriptional activity of CARβ [1]: no effect
potential cytotoxic effects [2]: minimal
IC50 [3]: 1 to 100 nM
inhibition of SR12813- and paclitaxel-induced activation of Gal-L-SXR ([4]; 50 nM ET-743, 10 μM SR12813 or 10 μM paclitaxel): extremely potent and effective inhibitor
concentrations of maximal inhibition of SXR ([4]; wild-type SXR and Gal-L-SXR, 10 μM SR12813): 25 to 50 nM

SMILES: CCOP(=O)(OCC)C(=Cc1cc(C(C)(C)C)c(O)c(C(C)(C)C)c1)P(=O)(OCC)OCC [SR12813]
CYP2C8 mRNA expression [5]: less than that seen with other SXR agonists
MRP2 mRNA expression [6]: induced expression

effect on SXR-SMRT interaction [7]: little effect
activation of Gal-L-SXR [4]: did not effectively activate
coactivator recruitment effect, less than that seen with paclitaxel [9]: 25-40%
SMILES: CC(=O)O[C@@]12CO[C@@H]1C[C@H](O)[C@@]1(C)C(=O)[C@H](O)C3=C(C)[C@@H](OC(=O)[C@H](O)[C@@H](NC(=O)OC(C)(C)C)c4ccccc4)C[C@@](O)([C@@H](OC(=O)c4ccccc4)[C@H]21)C3(C)C [docetaxel]
MDR1 mRNA expression [8]: did not induce
potential cytotoxic effects [10]: minimal
rate of [14C]-paclitaxel efflux versus untreated cells [11]: did not differ from controls
